ChEMBL document CHEMBL1201862, “PubChem BioAssay data set” (2004)
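Cultured in 96-well plates, cells were exposed to test compound for 48 hours across five concentrations. GI50 marks 50% less growth.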 Activity calls are given as the source filed them. Cut-off read from the data, not from the text of the source: active = GI50 up to about 1.1 µM and inactive = higher.

Columns and labels:
Assay in all cases: NCI tumour cell line growth inhibition, 48 h
[1] = tested on: RPMI-8226
[2] = tested on: CAKI-1
[3] = tested on: DLD-1
[4] = tested on: SF-539
[5] = tested on: NCI-H226
[6] = tested on: Malme-3M
[7] = tested on: A498
[8] = tested on: SR
[9] = tested on: SNB-78
[10] = tested on: EKVX
[11] = tested on: XF498
[12] = tested on: NCI/ADR-RES
[13] = tested on: MCF7
[14] = tested on: MDA-MB-435
[15] = tested on: PC-3
[16] = tested on: Hs-578T
[17] = tested on: DU-145
[18] = tested on: MDA-MB-231
[19] = tested on: MDA-N
[20] = tested on: T47D

Measured: GI50

CCOC(=O)C(=O)Nc1cccc(C)c1C
inactive: [1] > 100 µM | [2] > 100 µM | [3] > 100 µM | [4] > 100 µM | [5] > 100 µM | [6] > 100 µM | [7] > 100 µM | [8] > 100 µM | [9] > 100 µM | [10] > 100 µM | [11] > 100 µM

CN(C)/N=N/c1ccc([N+](=O)[O-])cc1C(N)=O
inactive: [12] > 100 µM | [1] > 100 µM | [2] > 100 µM | [3] > 100 µM | [4] > 100 µM | [5] > 100 µM | [6] > 100 µM | [7] > 80.9 µM | [13] > 100 µM | [9] > 100 µM | [10] > 71.3 µM | [11] > 100 µM

COc1cccc(C2C(C(=O)O)=C(CO)Oc3cc4c(cc32)OCO4)c1 (stereo not given)
inactive: [1] > 100 µM | [2] > 100 µM | [3] > 100 µM | [4] > 100 µM | [5] > 100 µM | [6] > 100 µM | [7] > 100 µM | [9] > 100 µM | [10] > 100 µM | [11] 36.5 µM

Nc1nnc(CCC(=O)Nc2cc(Cl)ccc2Cl)n1N
inactive: [1] > 100 µM | [2] > 100 µM | [3] > 100 µM | [4] > 100 µM | [5] > 100 µM | [6] > 100 µM | [7] > 100 µM | [8] > 100 µM | [9] > 100 µM | [10] > 100 µM | [11] > 100 µM

CC(C)(Br)C1(O)CCCN1C(=O)c1ccccc1 (stereo not given)
inactive: [3] > 100 µM | [4] > 100 µM | [6] > 100 µM | [7] > 100 µM | [8] > 100 µM | [9] > 100 µM | [10] > 100 µM

CC(C)(C)C(=O)OCC1OC(N=[N+]=[N-])C(OC(=O)C(C)(C)C)C(OC(=O)C(C)(C)C)C1OC(=O)C(C)(C)C (stereo not given)
inactive: [1] > 100 µM | [2] > 100 µM | [3] > 100 µM | [4] > 100 µM | [6] > 100 µM | [7] > 100 µM | [8] > 100 µM | [9] > 100 µM | [10] > 100 µM | [11] > 100 µM

COC[C@@H](Cc1ccc(OC)c(OC)c1)[C@@H](COC)Cc1ccc(OC)c(OC)c1
inactive: [3] > 100 µM | [4] > 100 µM | [6] > 100 µM | [7] > 100 µM | [8] 95.3 µM | [9] > 100 µM | [10] > 100 µM | [11] > 100 µM

C=COCCCOc1ccccc1
inactive: [1] > 100 µM | [2] > 100 µM | [3] > 100 µM | [4] > 100 µM | [5] > 100 µM | [6] > 100 µM | [8] > 100 µM | [10] > 100 µM | [11] > 100 µM

CCP(=O)(CC)C(Cl)(Cl)C(O)C(C)(C)C (stereo not given)
inactive: [12] > 100 µM | [1] > 100 µM | [14] > 100 µM | [2] > 100 µM | [15] > 100 µM | [16] > 100 µM | [5] > 100 µM | [7] > 100 µM | [17] > 100 µM | [8] > 100 µM | [18] > 100 µM | [13] > 100 µM | [19] > 100 µM | [20] > 100 µM

CC(=O)/N=C1/N(/C=C2\C(=O)Oc3ccccc3C2=O)C(=O)/C(=C/c2ccc(NC(C)=O)cc2)N1C
inactive: [12] > 100 µM | [1] > 100 µM | [14] > 100 µM | [2] > 100 µM | [15] > 100 µM | [4] > 100 µM | [16] 44.4 µM | [5] > 100 µM | [6] > 100 µM | [7] > 100 µM | [17] > 100 µM | [8] > 100 µM | [18] > 100 µM | [13] > 100 µM | [19] > 100 µM | [20] > 100 µM | [10] > 100 µM

C=CS(=O)(=O)CCN1CC1
inactive: [12] > 10 µM | [1] > 10 µM | [14] > 10 µM | [2] > 10 µM | [15] > 10 µM | [4] > 10 µM | [16] > 10 µM | [6] > 10 µM | [17] > 10 µM | [8] > 10 µM | [18] > 10 µM | [13] > 10 µM | [19] > 10 µM | [20] > 10 µM

Cc1ccc(S(=O)(=O)N2CCCSCC2)cc1
inactive: [12] > 100 µM | [14] 95.7 µM | [15] > 100 µM | [16] 72.4 µM | [5] > 100 µM | [7] > 100 µM | [17] > 100 µM | [8] > 100 µM | [18] > 100 µM | [13] > 100 µM | [19] > 100 µM | [20] > 100 µM

O=C(NNC(=O)c1nsc2ccccc12)c1ccc(Cl)cc1
inactive: [1] 20.4 µM | [4] 17 µM | [8] 25.1 µM | [9] 24.8 µM | [10] 18.2 µM
